Several values for one entry are separate records, joined by “and”; a condition that tells them apart may be missing. Equal values may be shown once. Toxic doses and inconclusive results are not listed.
Tested on: P388 leukemia ip, CD2F1 mice, survival T/C
Assay: NCI In Vivo Anticancer Drug Screen. Data for tumor model P388 Leukemia (intraperitoneal) in CD2F1 (CDF1) mice
Details: endpoint: median survival time, higher = longer survival
How it was run: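 Mice carrying the transplanted tumor received test compound or vehicle. Survival was recorded in each group, and the value is the treated-group measurement divided by that of the vehicle-treated control group.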

[1] = dose: 50.0 mg/kg/injection, schedule: Q01DX005 (ip), vehicle: Klucel (hydroxypropylcellulose) (HPC)
[2] = dose: 100.0 mg/kg/injection, schedule: Q01DX005 (ip), vehicle: Klucel (hydroxypropylcellulose) (HPC)
[3] = dose: 100.0 mg/kg/injection, schedule: Q01DX009 (ip), vehicle: saline with Tween-80
[4] = dose: 60.0 mg/kg/injection, schedule: Q01DX005 (ip), vehicle: saline with Tween-80
[5] = dose: 120.0 mg/kg/injection, schedule: Q01DX005 (ip), vehicle: saline with Tween-80
[6] = dose: 240.0 mg/kg/injection, schedule: Q01DX005 (ip), vehicle: saline with Tween-80
[7] = dose: 200.0 mg/kg/injection, schedule: Q01DX005 (ip), vehicle: Klucel (hydroxypropylcellulose) (HPC)

How did the T/C (dose: 100.0 mg/kg/injection, schedule: Q04DX002 (ip), vehicle: saline) turn out when Cc1cc(/C=C2/OC(=O)c3ccccc32)cc(C(C)(C)C)c1O was run?
The T/C was 101 % of control.

What about the T/C (dose: 200.0 mg/kg/injection, schedule: Q04DX002 (ip), vehicle: saline) of the same compound?
Its T/C is 99 % of control.

What about the T/C (dose: 400.0 mg/kg/injection, schedule: Q04DX002 (ip), vehicle: saline) of the same compound?
Its T/C is 101 % of control.

For COc1ccc(N2C(=O)CC(c3cc(C)ccc3OC)CC2=O)cc1, which T/C (dose: 100.0 mg/kg/injection, schedule: Q01DX001 (ip), vehicle: saline) is on record?
The T/C was 98 % of control.

What about the T/C (dose: 200.0 mg/kg/injection, schedule: Q01DX001 (ip), vehicle: saline) of the same compound?
Its T/C is 98 % of control.

And the T/C (dose: 400.0 mg/kg/injection, schedule: Q01DX001 (ip), vehicle: saline)?
The T/C was 91 % of control.

O=[N+]([O-])c1c(Nc2ccccc2)nc(-c2ccccc2)nc1Nc1ccccc1 was tested. Which T/C (dose: 100.0 mg/kg/injection, schedule: Q04DX003 (ip), vehicle: saline) did it give?
Its T/C is 90 % of control.

What about the T/C (dose: 200.0 mg/kg/injection, schedule: Q04DX003 (ip), vehicle: saline) of the same compound?
Its T/C is 92 % of control.

What about the T/C (dose: 400.0 mg/kg/injection, schedule: Q04DX003 (ip), vehicle: saline) of the same compound?
The T/C was 90 % of control.

For Cc1cnc(C2OCCO2)c2cccc([N+](=O)[O-])c12, which T/C (dose: 50.0 mg/kg/injection, schedule: Q01DX009 (ip), vehicle: Klucel (hydroxypropylcellulose) (HPC)) is on record?
Its T/C is 105 % of control.

What about the T/C (dose: 100.0 mg/kg/injection, schedule: Q01DX009 (ip), vehicle: Klucel (hydroxypropylcellulose) (HPC)) of the same compound?
Its T/C is 105 % of control.

And the T/C (dose: 200.0 mg/kg/injection, schedule: Q01DX009 (ip), vehicle: Klucel (hydroxypropylcellulose) (HPC))?
The T/C was 101 % of control.

With [CH3][Sn]([CH3])([S]P(=S)(c1ccccc1)c1ccccc1)[S]P(=S)(c1ccccc1)c1ccccc1 as the compound, how does the T/C [1] read?
Its T/C is 118 % of control.

What about the T/C [2] of the same compound?
The T/C was 117 % of control.

Which results are given for CCOC(=O)NC12c3ccccc3C(c3ccccc31)C(C(=O)O)C2C(=O)O (configuration not stated)?
T/C [3]: 118 % of control; T/C (dose: 200.0 mg/kg/injection, schedule: Q01DX009 (ip), vehicle: saline with Tween-80): 118 % of control; T/C (dose: 400.0 mg/kg/injection, schedule: Q01DX009 (ip), vehicle: saline with Tween-80): 118 % of control

With N#CC(O)COc1nsnc1N1CCOCC1 (configuration not stated) as the compound, how does the T/C (dose: 6.25 mg/kg/injection, schedule: Q01DX009 (ip), vehicle: Klucel (hydroxypropylcellulose) (HPC)) read?
The T/C was 108 % of control.

And the T/C (dose: 12.5 mg/kg/injection, schedule: Q01DX009 (ip), vehicle: Klucel (hydroxypropylcellulose) (HPC))?
The T/C was 106 % of control.

And the T/C (dose: 25.0 mg/kg/injection, schedule: Q01DX009 (ip), vehicle: Klucel (hydroxypropylcellulose) (HPC))?
Its T/C is 105 % of control.

What does the source list for Cc1cc2[nH]c3c(C#N)c(O)c(Cc4ccccc4)c(=O)n3c2cc1C?
T/C [4]: 91 % of control; T/C [5]: 89 % of control; T/C [6]: 90 % of control

Which results are given for O=C(OC(=O)c1cccc(-c2ccccc2)c1)c1cccc(-c2ccccc2)c1?
T/C (dose: 100.0 mg/kg/injection, schedule: Q04DX003 (ip), vehicle: Klucel (hydroxypropylcellulose) (HPC)): 104 % of control; T/C (dose: 200.0 mg/kg/injection, schedule: Q04DX003 (ip), vehicle: Klucel (hydroxypropylcellulose) (HPC)): 90 % of control; T/C (dose: 400.0 mg/kg/injection, schedule: Q04DX003 (ip), vehicle: Klucel (hydroxypropylcellulose) (HPC)): 90 % of control

With COc1ccc(C[N+]2=Cc3cc(OC)c(OC)cc3CC2)cc1 as the compound, how does the T/C (dose: 12.5 mg/kg/injection, schedule: Q01DX001 (ip), vehicle: saline + alcohol) read?
The T/C was 100 % of control.

What about the T/C (dose: 25.0 mg/kg/injection, schedule: Q01DX001 (ip), vehicle: saline + alcohol) of the same compound?
Its T/C is 98 % of control.

What about the T/C (dose: 50.0 mg/kg/injection, schedule: Q01DX001 (ip), vehicle: saline + alcohol) of the same compound?
Its T/C is 98 % of control.

How did the T/C (dose: 6.25 mg/kg/injection, schedule: Q01DX009 (ip), vehicle: saline) turn out when CC1CN1P(=O)(N1CC2CCC(CC2)C1)N1CC1C (configuration not stated) was run?
Its T/C is 109 % of control.

What about the T/C (dose: 12.5 mg/kg/injection, schedule: Q01DX009 (ip), vehicle: saline) of the same compound?
Its T/C is 95 % of control.

What about the T/C (dose: 25.0 mg/kg/injection, schedule: Q01DX009 (ip), vehicle: saline) of the same compound?
Its T/C is 104 % of control.

And the T/C (dose: 100.0 mg/kg/injection, schedule: Q04DX003 (ip), vehicle: saline with Tween-80)?
The T/C was 122 % of control.

What about the T/C (dose: 200.0 mg/kg/injection, schedule: Q04DX003 (ip), vehicle: saline with Tween-80) of the same compound?
The T/C was 90 % of control.

With CC1NC(=O)N(C2CCCCCCC2)C1=O (configuration not stated) as the compound, how does the T/C [1] read?
The T/C was 102 % of control.

What about the T/C [2] of the same compound?
The T/C was 114 % of control.

What about the T/C [7] of the same compound?
Its T/C is 102 % of control.

Which T/C (dose: 2.0 mg/kg/injection, schedule: Q01DX009 (ip), vehicle: saline with Tween-80) does the source give for Cc1ccc(Sc2cccc3c(C)c4cccc5c4c(c23)C[S+]5c2ccc(C)cc2)cc1 (configuration not stated) here?
The T/C was 104 % of control.

What about the T/C (dose: 3.0 mg/kg/injection, schedule: Q01DX009 (ip), vehicle: saline with Tween-80) of the same compound?
Its T/C is 122 % of control.

Which T/C (dose: 60.0 mg/kg/injection, schedule: Q01DX005 (ip), vehicle: saline) does the source give for OCC(O)C(Cl)CCl (configuration not stated) here?
Its T/C is 101 % of control.

What about the T/C (dose: 120.0 mg/kg/injection, schedule: Q01DX005 (ip), vehicle: saline) of the same compound?
Its T/C is 100 % of control.

And the T/C (dose: 240.0 mg/kg/injection, schedule: Q01DX005 (ip), vehicle: saline)?
Its T/C is 86 % of control.

For CC(CCc1nc2ccccc2[nH]1)c1nc2ccccc2[nH]1 (configuration not stated), which T/C (dose: 25.0 mg/kg/injection, schedule: Q01DX005 (ip), vehicle: Klucel (hydroxypropylcellulose) (HPC)) is on record?
Its T/C is 92 % of control.

What about the T/C [1] of the same compound?
Its T/C is 94 % of control.

And the T/C [2]?
Its T/C is 91 % of control.

And the T/C [7]?
The T/C was 91 % of control.

Which T/C (dose: 6.25 mg/kg/injection, schedule: Q01DX009 (ip), vehicle: distilled water + Tween-80) does the source give for CC(C)(C)NC(=O)OCc1c(COC(=O)NC(C)(C)C)c(-c2ccc(Cl)c(Cl)c2)n2c1CCC2 here?
Its T/C is 123 % of control.

What about the T/C (dose: 12.5 mg/kg/injection, schedule: Q01DX009 (ip), vehicle: distilled water + Tween-80) of the same compound?
The T/C was 124 % of control.

What about the T/C (dose: 50.0 mg/kg/injection, schedule: Q01DX009 (ip), vehicle: distilled water + Tween-80) of the same compound?
The T/C was 158 % of control and 164 % of control.

And the T/C (dose: 100.0 mg/kg/injection, schedule: Q01DX009 (ip), vehicle: distilled water + Tween-80)?
The T/C was 164 % of control and 167 % of control.

And the T/C (dose: 200.0 mg/kg/injection, schedule: Q01DX009 (ip), vehicle: distilled water + Tween-80)?
Its T/C is 172 % of control.

What about the T/C (dose: 400.0 mg/kg/injection, schedule: Q01DX009 (ip), vehicle: distilled water + Tween-80) of the same compound?
Its T/C is 117 % of control.

Which T/C (dose: 25.0 mg/kg/injection, schedule: Q01DX009 (ip), vehicle: suspension in saline) does the source give for CC(C)C(N)P(=O)(O)O (configuration not stated) here?
Its T/C is 96 % of control.

And the T/C (dose: 50.0 mg/kg/injection, schedule: Q01DX009 (ip), vehicle: suspension in saline)?
Its T/C is 98 % of control.

What about the T/C (dose: 100.0 mg/kg/injection, schedule: Q01DX009 (ip), vehicle: suspension in saline) of the same compound?
Its T/C is 99 % of control.

And the T/C (dose: 200.0 mg/kg/injection, schedule: Q01DX009 (ip), vehicle: suspension in saline)?
The T/C was 100 % of control.

Which results are given for CC(C)N(CCn1cnc2c(N)ncnc21)C(C)C?
T/C [1]: 100 % of control; T/C [2]: 97 % of control

How did the T/C (dose: 100.0 mg/kg/injection, schedule: Q01DX009 (ip), vehicle: saline) turn out when COc1cc(CO)ccc1O was run?
The T/C was 102 % of control and 105 % of control.

And the T/C (dose: 200.0 mg/kg/injection, schedule: Q01DX009 (ip), vehicle: saline)?
The T/C was 89 % of control and 93 % of control.

And the T/C (dose: 400.0 mg/kg/injection, schedule: Q01DX009 (ip), vehicle: saline)?
Its T/C is 99 % of control and 104 % of control.

What about the T/C (dose: 600.0 mg/kg/injection, schedule: Q01DX009 (ip), vehicle: saline) of the same compound?
The T/C was 107 % of control and 89 % of control.

What does the source list for C[Si](C)(C)O/C=C1\CCCCC1=O?
T/C (dose: 50.0 mg/kg/injection, schedule: Q01DX009 (ip), vehicle: saline with Tween-80): 121 % of control; T/C [3]: 106 % of control

How did the T/C (dose: 6.25 mg/kg/injection, schedule: Q01DX005 (ip), vehicle: saline) turn out when Nc1ncnc2c1nc(F)n2C1OC(CO)C(O)C1O (configuration not stated) was run?
Its T/C is 107 % of control.

And the T/C (dose: 12.5 mg/kg/injection, schedule: Q01DX005 (ip), vehicle: saline)?
The T/C was 108 % of control.

And the T/C (dose: 25.0 mg/kg/injection, schedule: Q01DX005 (ip), vehicle: saline)?
Its T/C is 108 % of control.

With NC(=O)c1[nH]cnc1O as the compound, how does the T/C (dose: 12.5 mg/kg/injection, schedule: Q01DX005 (ip), vehicle: saline with Tween-80) read?
The T/C was 114 % of control.

What about the T/C (dose: 25.0 mg/kg/injection, schedule: Q01DX005 (ip), vehicle: saline with Tween-80) of the same compound?
Its T/C is 107 % of control.

And the T/C (dose: 50.0 mg/kg/injection, schedule: Q01DX005 (ip), vehicle: saline with Tween-80)?
Its T/C is 108 % of control and 123 % of control.

What about the T/C (dose: 100.0 mg/kg/injection, schedule: Q01DX005 (ip), vehicle: saline with Tween-80) of the same compound?
Its T/C is 114 % of control and 123 % of control.

And the T/C (dose: 100.0 mg/kg/injection, schedule: Q04DX002 (ip), vehicle: saline with Tween-80)?
Its T/C is 100 % of control.

What about the T/C (dose: 200.0 mg/kg/injection, schedule: Q01DX005 (ip), vehicle: saline with Tween-80) of the same compound?
The T/C was 123 % of control.

What about the T/C (dose: 200.0 mg/kg/injection, schedule: Q04DX002 (ip), vehicle: saline with Tween-80) of the same compound?
The T/C was 110 % of control.

Which results are given for N#Cc1nc(CC(=O)c2ccccc2)c(CC(=O)c2ccccc2)nc1C#N?
T/C [4]: 100 % of control; T/C [5]: 106 % of control and 94 % of control; T/C [6]: 100 % of control and 91 % of control

From PubChem BioAssay AID330 (DTP/NCI, 2004)
